# Results published in patent US20250302832A1, “PYRAZINE DERIVATIVES AND USES THEREOF” (FOGHORN THERAPEUTICS INC., priority 2022, published 2025).
# What was measured:
# [1] = target: T1, HiBit-BRG1 fusion protein (Homo sapiens, UniProt P51532); experiment: HiBiT-BRG1 cell-based degradation assay (Nano-Glo HiBiT lytic detection, 24 h); settings: HeLa cell line expressing HiBit-BRG1 and LgBit; for Dmax: read-out: BRG1 HiBit Degradation Maximum (%); for DC50: read-out: BRMG1 HiBit Degradation IC50
# T1 construct: expressed in transfected cells
# Method: Procedure: A stable HeLa cell line expressing HiBiT-BRM was generated. On day 0, 5000 cells were seeded in 40 μL of media into each well of 384-well cell culture plates. […] Subsequently plates were incubated for 24 h in a standard tissue culture incubator and equilibrated at room temperature for 15 minutes. Nano-GB HiBiT Lytic Detection System (Promega N3050) reagent was freshly prepared and 20 ul was added to each well. Upon addition of this LgBit-containing reagent, the HiBiT and LgBiT proteins associate to form the luminescent NanoBiT luciferase. The plates were shaken for 10 minutes at room temperature and the bioluminescence read using an EnVision plate reader (PerkinElmer).
# For measurement of BRG1 degradation, a stable HeLa cell line expressing HiBit-BRG1 and LgBit was generated. The same protocol as above was then followed.
# (§1) The degradation % was calculated using the following formula: % degradation=100%−100%×(Lumsample−LuMLC)/(LuMHC−LuMLC). DMSO treated cells are employed as High Control (HC) and 2 μM of a known BRM/BRG1 degrader standard treated cells are employed as Low Control (LC).
# [2] = target: T2, HiBit-BRM fusion protein (Homo sapiens, UniProt P51531); experiment: HiBiT-BRM cell-based degradation assay (Nano-Glo HiBiT lytic detection, 24 h); settings: HeLa cell line expressing HiBiT-BRM; for DC50: read-out: BRM HiBit Degradation IC50
# T2 construct: expressed in transfected cells
# Method: Procedure: A stable HeLa cell line expressing HiBiT-BRM was generated. On day 0, 5000 cells were seeded in 40 μL of media into each well of 384-well cell culture plates. On day 1, cells were treated with 120 nL DMSO or 120 nL of 3-fold serially DMSO-diluted compounds (10 points in duplicate with 30 μM as final top dose). Subsequently plates were incubated for 24 h in a standard tissue culture incubator and equilibrated at room temperature for 15 minutes. Nano-GB HiBiT Lytic Detection System (Promega N3050) reagent was freshly prepared and 20 ul was added to each well. Upon addition of this LgBit-containing reagent, the HiBiT and LgBiT proteins associate to form the luminescent NanoBiT luciferase. The plates were shaken for 10 minutes at room temperature and the bioluminescence read using an EnVision plate reader (PerkinElmer).
# as §1
# T2 sequence (P51531 whole entry, the tested form may be a part): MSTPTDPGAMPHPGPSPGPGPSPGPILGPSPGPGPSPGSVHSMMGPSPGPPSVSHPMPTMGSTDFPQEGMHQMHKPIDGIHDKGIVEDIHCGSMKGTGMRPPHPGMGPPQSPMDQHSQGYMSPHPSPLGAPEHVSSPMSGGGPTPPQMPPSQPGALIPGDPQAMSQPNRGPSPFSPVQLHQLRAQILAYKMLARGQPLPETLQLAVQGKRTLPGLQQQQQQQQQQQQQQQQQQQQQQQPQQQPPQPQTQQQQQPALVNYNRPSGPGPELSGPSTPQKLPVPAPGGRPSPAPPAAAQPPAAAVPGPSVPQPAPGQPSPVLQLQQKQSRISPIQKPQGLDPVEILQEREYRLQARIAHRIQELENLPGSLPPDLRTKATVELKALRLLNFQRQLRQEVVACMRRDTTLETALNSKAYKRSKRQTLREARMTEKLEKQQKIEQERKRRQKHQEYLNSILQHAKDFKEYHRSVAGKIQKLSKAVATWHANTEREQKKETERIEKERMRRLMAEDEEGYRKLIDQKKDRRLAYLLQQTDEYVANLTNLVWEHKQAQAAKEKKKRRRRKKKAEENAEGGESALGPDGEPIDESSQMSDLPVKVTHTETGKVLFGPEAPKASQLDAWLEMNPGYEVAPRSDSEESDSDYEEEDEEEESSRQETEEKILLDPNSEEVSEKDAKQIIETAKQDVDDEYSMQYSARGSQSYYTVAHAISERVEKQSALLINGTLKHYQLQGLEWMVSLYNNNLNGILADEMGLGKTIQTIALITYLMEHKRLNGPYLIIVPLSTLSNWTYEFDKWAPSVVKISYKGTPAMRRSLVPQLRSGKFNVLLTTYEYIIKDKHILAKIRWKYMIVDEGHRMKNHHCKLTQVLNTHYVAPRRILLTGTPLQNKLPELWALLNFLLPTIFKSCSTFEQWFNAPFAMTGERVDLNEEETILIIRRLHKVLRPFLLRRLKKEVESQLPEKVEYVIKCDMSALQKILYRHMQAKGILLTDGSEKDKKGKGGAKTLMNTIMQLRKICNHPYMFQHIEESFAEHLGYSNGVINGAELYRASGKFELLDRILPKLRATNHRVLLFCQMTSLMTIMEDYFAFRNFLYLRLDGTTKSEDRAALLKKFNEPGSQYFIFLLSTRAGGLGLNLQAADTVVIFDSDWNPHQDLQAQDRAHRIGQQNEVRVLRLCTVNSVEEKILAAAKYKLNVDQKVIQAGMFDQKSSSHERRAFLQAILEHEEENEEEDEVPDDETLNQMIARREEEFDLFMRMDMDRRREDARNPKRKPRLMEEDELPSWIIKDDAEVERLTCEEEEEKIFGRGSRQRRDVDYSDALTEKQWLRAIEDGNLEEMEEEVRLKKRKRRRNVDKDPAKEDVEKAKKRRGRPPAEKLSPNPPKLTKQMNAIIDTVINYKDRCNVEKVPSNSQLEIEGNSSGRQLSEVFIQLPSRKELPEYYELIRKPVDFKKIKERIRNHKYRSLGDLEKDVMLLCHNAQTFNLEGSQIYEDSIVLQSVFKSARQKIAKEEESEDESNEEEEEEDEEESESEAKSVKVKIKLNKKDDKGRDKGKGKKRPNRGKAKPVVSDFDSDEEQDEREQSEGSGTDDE
# T1 sequence (P51532 whole entry, the tested form may be a part): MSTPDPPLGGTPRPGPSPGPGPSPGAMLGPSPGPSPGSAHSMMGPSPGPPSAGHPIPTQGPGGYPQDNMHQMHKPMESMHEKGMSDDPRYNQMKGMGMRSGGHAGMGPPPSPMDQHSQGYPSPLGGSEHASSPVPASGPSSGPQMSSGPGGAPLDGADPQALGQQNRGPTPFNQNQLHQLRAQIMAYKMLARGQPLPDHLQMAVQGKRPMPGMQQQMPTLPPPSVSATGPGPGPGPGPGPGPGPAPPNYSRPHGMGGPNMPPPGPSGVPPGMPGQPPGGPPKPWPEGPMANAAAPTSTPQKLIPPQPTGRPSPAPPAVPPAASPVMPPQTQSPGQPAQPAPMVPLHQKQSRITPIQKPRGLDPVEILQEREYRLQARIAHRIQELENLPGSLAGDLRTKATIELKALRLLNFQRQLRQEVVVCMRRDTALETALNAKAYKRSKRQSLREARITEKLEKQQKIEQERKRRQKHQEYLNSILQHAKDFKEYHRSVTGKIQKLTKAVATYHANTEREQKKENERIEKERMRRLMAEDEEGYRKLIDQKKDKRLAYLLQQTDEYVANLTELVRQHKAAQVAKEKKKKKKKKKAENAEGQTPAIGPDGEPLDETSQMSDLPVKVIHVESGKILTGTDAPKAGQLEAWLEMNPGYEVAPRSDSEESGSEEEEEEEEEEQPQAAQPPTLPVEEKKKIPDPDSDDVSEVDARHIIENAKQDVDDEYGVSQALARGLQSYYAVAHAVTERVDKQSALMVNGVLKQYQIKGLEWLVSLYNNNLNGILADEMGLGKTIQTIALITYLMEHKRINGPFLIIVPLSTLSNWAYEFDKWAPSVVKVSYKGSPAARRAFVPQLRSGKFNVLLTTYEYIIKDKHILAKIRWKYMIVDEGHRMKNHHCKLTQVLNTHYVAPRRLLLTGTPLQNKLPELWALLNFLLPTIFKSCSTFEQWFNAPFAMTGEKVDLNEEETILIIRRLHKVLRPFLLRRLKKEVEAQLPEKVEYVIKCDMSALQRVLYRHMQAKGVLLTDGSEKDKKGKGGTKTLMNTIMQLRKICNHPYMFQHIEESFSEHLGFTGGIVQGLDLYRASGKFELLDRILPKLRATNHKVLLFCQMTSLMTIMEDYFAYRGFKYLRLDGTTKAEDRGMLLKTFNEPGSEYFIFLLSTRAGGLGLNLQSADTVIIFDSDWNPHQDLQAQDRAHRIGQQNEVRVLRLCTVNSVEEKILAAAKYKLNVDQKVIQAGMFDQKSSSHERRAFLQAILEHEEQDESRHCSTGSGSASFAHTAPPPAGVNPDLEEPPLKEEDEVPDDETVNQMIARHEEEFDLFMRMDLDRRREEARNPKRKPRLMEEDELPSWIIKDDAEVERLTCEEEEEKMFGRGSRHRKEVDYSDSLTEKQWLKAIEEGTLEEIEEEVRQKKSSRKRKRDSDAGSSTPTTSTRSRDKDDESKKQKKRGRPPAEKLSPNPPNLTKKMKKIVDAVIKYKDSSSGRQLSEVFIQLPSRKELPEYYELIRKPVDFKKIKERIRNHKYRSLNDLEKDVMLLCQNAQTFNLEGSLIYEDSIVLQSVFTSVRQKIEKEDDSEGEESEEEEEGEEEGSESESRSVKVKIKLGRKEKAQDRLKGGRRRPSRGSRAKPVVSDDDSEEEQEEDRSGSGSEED
Dmax [1],DC50 [2],DC50 [1],Structure (SMILES),BRM HiBit Degradation Maximum (%) [2]
< 50%,> 10 nM,,"Cc1ncsc1-c1ccc([C@H](C)NC(=O)[C@@H]2C[C@@H](O)CN2C(=O)[C@@H](c2cc(-c3cc(N4CC[C@@H](c5cc6nnc(-c7ccccc7O)cc6n5C5CC5)C4)ccn3)no2)C(C)C)cc1 (single isomer, unassigned) [Compound 91]",A (“A” indicates maximum degradation ≥75%)
< 50%,< 10 nM,,"Cc1cc(-c2cc([C@H](C(=O)N3C[C@H](O)C[C@H]3C(=O)N[C@@H](C)c3ccc(-c4scnc4C)cc3)C(C)C)on2)cnc1N1CC[C@H](c2cc3nnc(-c4ccccc4O)cc3n2C2CC2)C1 (single isomer, unassigned) [Compound 110]",A (“A” indicates maximum degradation ≥75%)
> 75%,> 10 nM,> 100 nM,"Cc1ncsc1-c1ccc([C@H](C)NC(=O)[C@@H]2C[C@@H](O)CN2C(=O)[C@@H](c2cc(OCCN3CC(c4cc5nnc(-c6ccccc6O)cc5[nH]4)C3)no2)C(C)C)cc1 [Compound 1, (2S,4R)-4-hydroxy-1-[(2R)-2-[3-(2-{3-[3-(2-hydroxyphenyl)-5H-pyrrolo[3,2-c]pyridazin-6-yl]azetidin-1-yl}ethoxy)-1,2-oxazol-5-yl]-3-methylbutanoyl]-N-[(1S)-1-[4-(4-methyl-1,3-thiazol-5-yl)phenyl]ethyl]pyrrolidine-2-carboxamide]",A (“A” indicates maximum degradation ≥75%)
< 50%,> 100 nM,,"Cc1ncsc1-c1ccc([C@H](C)NC(=O)[C@@H]2C[C@@H](O)CN2C(=O)[C@@H](c2cc(N(C)CCN3CC(c4cc5nnc(-c6ccccc6O)cc5[nH]4)C3)no2)C(C)C)cc1 [Compound 2, (2S,4R)-4-hydroxy-1-((R)-2-(3-((2-(3-(3-(2-hydroxyphenyl)-5H-pyrrolo[3,2-c]pyridazin-6-yl)azetidin-1-yl)ethyl)(methyl)amino)isoxazol-5-yl)-3-methylbutanoyl)-N-((S)-1-(4-(4-methylthiazol-5-yl)phenyl)ethyl)pyrrolidine-2-carboxamide]",A (“A” indicates maximum degradation ≥75%)
,> 1000 nM,,"Cc1ncsc1-c1ccc([C@H](C)NC(=O)[C@@H]2C[C@@H](O)CN2C(=O)[C@@H](c2cc(OCCCN3CC(c4cc5nnc(-c6ccccc6O)cc5[nH]4)C3)no2)C(C)C)cc1 [Compound 3, (2S,4R)-4-hydroxy-1-((R)-2-(3-(3-(3-(3-(2-hydroxyphenyl)-5H-pyrrolo[3,2-c]pyridazin-6-yl)azetidin-1-yl)propoxy)isoxazol-5-yl)-3-methylbutanoyl)-N-((S)-1-(4-(4-methylthiazol-5-yl)phenyl)ethyl)pyrrolidine-2-carboxamide, formic acid]",B (“B” indicates maximum degradation ≥50%)
> 50%,> 10 nM,> 100 nM,"Cc1ncsc1-c1ccc([C@H](C)NC(=O)[C@@H]2C[C@@H](O)CN2C(=O)[C@@H](c2cc(N3CCC(CN4CC(c5cc6nnc(-c7ccccc7O)cc6[nH]5)C4)CC3)no2)C(C)C)cc1 [Compound 4, (2S,4R)-4-hydroxy-1-((R)-2-(3-(4-((3-(3-(2-hydroxyphenyl)-5H-pyrrolo[3,2-c]pyridazin-6-yl)azetidin-1-yl)methyl)piperidin-1-yl)isoxazol-5-yl)-3-methylbutanoyl)-N-((S)-1-(4-(4-methylthiazol-5-yl)phenyl)ethyl)pyrrolidine-2-carboxamide]",A (“A” indicates maximum degradation ≥75%)
> 75%,< 10 nM,> 100 nM,"Cc1ncsc1-c1ccc([C@H](C)NC(=O)[C@@H]2C[C@@H](O)CN2C(=O)[C@@H](c2cc(N3CCC(N4CC(c5cc6nnc(-c7ccccc7O)cc6[nH]5)C4)CC3)no2)C(C)C)cc1 [Compound 5, (2S,4R)-4-hydroxy-1-((R)-2-(3-(4-(3-(3-(2-hydroxyphenyl)-5H-pyrrolo[3,2-c]pyridazin-6-yl)azetidin-1-yl)piperidin-1-yl)isoxazol-5-yl)-3-methylbutanoyl)-N-((S)-1-(4-(4-methylthiazol-5-yl)phenyl)ethyl)pyrrolidine-2-carboxamide]",A (“A” indicates maximum degradation ≥75%)
> 75%,> 10 nM,> 100 nM,Cc1ncsc1-c1ccc([C@H](C)NC(=O)[C@@H]2C[C@@H](O)CN2C(=O)[C@@H](c2cc(N3CCC(C(=O)N4CC(c5cc6nnc(-c7ccccc7O)cc6[nH]5)C4)CC3)no2)C(C)C)cc1 [Compound 6],A (“A” indicates maximum degradation ≥75%)
< 50%,> 100 nM,,"Cc1ncsc1-c1ccc([C@H](C)NC(=O)[C@@H]2C[C@@H](O)CN2C(=O)[C@@H](c2cc(OCC(=O)N3CC(c4cc5nnc(-c6ccccc6O)cc5[nH]4)C3)no2)C(C)C)cc1 [Compound 7, (2S,4R)-4-hydroxy-1-((R)-2-(3-(2-(3-(3-(2-hydroxyphenyl)-5H-pyrrolo[3,2-c]pyridazin-6-yl)azetidin-1-yl)-2-oxoethoxy)isoxazol-5-yl)-3-methylbutanoyl)-N-((S)-1-(4-(4-methylthiazol-5-yl)phenyl)ethyl)pyrrolidine-2-carboxamide]",A (“A” indicates maximum degradation ≥75%)
> 75%,< 10 nM,> 10 nM,"Cc1ncsc1-c1ccc([C@H](C)NC(=O)[C@@H]2C[C@@H](O)CN2C(=O)[C@@H](c2cc(OCCN3CC(c4cc5nnc(-c6ccccc6O)cc5n4C)C3)no2)C(C)C)cc1 [Compound 8, (2S,4R)-4-hydroxy-1-((R)-2-(3-(2-(3-(3-(2-hydroxyphenyl)-5-methyl-5H-pyrrolo[3,2-c]pyridazin-6-yl)azetidin-1-yl)ethoxy)isoxazol-5-yl)-3-methylbutanoyl)-N—((S)-1-(4-(4-methylthiazol-5-yl)phenyl)ethyl) pyrrolidine-2-carboxamide]",A (“A” indicates maximum degradation ≥75%)
< 50%,> 10 nM,,"Cc1ncsc1-c1ccc([C@H](C)NC(=O)[C@@H]2C[C@@H](O)CN2C(=O)[C@@H](c2cc(N3CCC(CN4CC(c5cc6nnc(-c7ccccc7O)cc6n5C)C4)CC3)no2)C(C)C)cc1 [Compound 9, (2S,4R)-4-hydroxy-1-((R)-2-(3-(4-((3-(3-(2-hydroxyphenyl)-5-methyl-5H-pyrrolo[3,2-c]pyridazin-6-yl)azetidin-1-yl)methyl)piperidin-1-yl)isoxazol-5-yl)-3-methylbutanoyl)-N-((S)-1-(4-(4-methylthiazol-5-yl)phenyl)ethyl)pyrrolidine-2-carboxamide]",A (“A” indicates maximum degradation ≥75%)
> 50%,> 10 nM,> 1000 nM,"Cc1ncsc1-c1ccc([C@H](C)NC(=O)[C@@H]2C[C@@H](O)CN2C(=O)[C@@H](c2cc(N(C)CCN3CC(c4cc5nnc(-c6ccccc6O)cc5n4C)C3)no2)C(C)C)cc1 [Compound 10, (2S,4R)-4-hydroxy-1-((R)-2-(3-((2-(3-(3-(2-hydroxyphenyl)-5-methyl-5H-pyrrolo[3,2-c]pyridazin-6-yl)azetidin-1-yl)ethyl)(methyl)amino)isoxazol-5-yl)-3-methylbutanoyl)-N-((S)-1-(4-(4-methylthiazol-5-yl)phenyl)ethyl)pyrrolidine-2-carboxamide]",A (“A” indicates maximum degradation ≥75%)
< 50%,> 10 nM,,"Cc1ncsc1-c1ccc([C@H](C)NC(=O)[C@@H]2C[C@@H](O)CN2C(=O)[C@@H](c2cc(OCCCN3CC(c4cc5nnc(-c6ccccc6O)cc5n4C)C3)no2)C(C)C)cc1 [Compound 11, (2S,4R)-4-hydroxy-1-((R)-2-(3-(3-(3-(3-(2-hydroxyphenyl)-5-methyl-5H-pyrrolo[3,2-c]pyridazin-6-yl)azetidin-1-yl)propoxy)isoxazol-5-yl)-3-methylbutanoyl)-N-((S)-1-(4-(4-methylthiazol-5-yl)phenyl)ethyl)pyrrolidine-2-carboxamide]",A (“A” indicates maximum degradation ≥75%)
